pIC50: −log10 of the molar value.
target: T1, Y2 receptors (Homo sapiens, UniProt P49146); assay: Radioligand binding assay ([125I]PYY, KAN-Ts cell membranes); conditions: Table 2, [125I]PYY 80 pM, average of results, read-out: IC50
T1 construct: endogenous in cells; host or cells: KAN-Ts cells (membranes)
T1 sequence (P49146 1-381): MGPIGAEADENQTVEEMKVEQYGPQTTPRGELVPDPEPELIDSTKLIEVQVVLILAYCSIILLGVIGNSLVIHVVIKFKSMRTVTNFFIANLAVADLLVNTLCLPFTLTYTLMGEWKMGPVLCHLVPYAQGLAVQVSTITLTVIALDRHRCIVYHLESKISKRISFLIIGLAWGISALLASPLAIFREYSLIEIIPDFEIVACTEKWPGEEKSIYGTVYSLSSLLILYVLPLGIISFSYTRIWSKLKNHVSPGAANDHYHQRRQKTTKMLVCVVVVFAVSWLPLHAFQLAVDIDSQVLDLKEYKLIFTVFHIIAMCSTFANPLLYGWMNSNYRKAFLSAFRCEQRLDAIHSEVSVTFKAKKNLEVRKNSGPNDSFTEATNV
Summary of the method: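 IC50 values are means of three to eight experiments run in duplicate, fitted sigmoidally against specific binding (defined by […]). Competition used 80 pM [^125I]PYY for 1 h at room temperature on KAN-Ts membranes carrying native Y2, with filtration and scintillation counting.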

Q: How did the pIC50 turn out when `CCN(CC)C(=O)C(c1ccccc1)N1CCN(c2ccc(C(=O)OC)cc2F)CC1` (stereo not shown) [Example 185, 4-[4-(Diethylcarbamoyl-phenyl-methyl)-piperazin-1-yl]-3-fluoro-benzoic acid methyl ester] was run?
A: The pIC50 was 5.62.

Q: With `CCN(CC)C(=O)C(c1ccccc1)C1CCN(c2ccc(NC(=O)c3ccnn3CC)cc2F)CC1` (stereo not shown) [Example 186, 2-Ethyl-2H-pyrazole-3-carboxylic acid {4-[4-(diethylcarbamoyl-phenyl-methyl)-piperidin-1-yl]-3-fluoro-phenyl}-amide] as the molecule, how does the pIC50 read?
A: The pIC50 was 6.68.

Q: How did the pIC50 turn out when `CCN(CC)C(=O)C(c1ccccc1)C1CCN(c2ccc(NC(=O)c3cccn3CC)cc2F)CC1` (stereo not shown) [Example 187, 1-Ethyl-1H-pyrrole-2-carboxylic acid {4-[4-(diethylcarbamoyl-phenyl-methyl)-piperidin-1-yl]-3-fluoro-phenyl}-amide] was run?
A: The pIC50 was 6.83.

Q: With `CCCCC(O)(c1ccccc1)C1CCN(c2ccc(NC(=O)C(CC)CC)cc2F)CC1` (stereo not shown) [Example 188, 2-Ethyl-N-{3-fluoro-4-[4-(1-hydroxy-1-phenyl-pentyl)-piperidin-1-yl]-phenyl}-butyramide] as the molecule, how does the pIC50 read?
A: The pIC50 was 6.70.

Q: How did the pIC50 turn out when `CCCCC(c1ccccc1)C1CCN(c2ccc(NC(=O)C(CC)CC)cc2F)CC1` (stereo not shown) [Example 189, 2-Ethyl-N-{3-fluoro-4-[4-(1-phenyl-pentyl)-piperidin-1-yl]-phenyl}-butyramide] was run?
A: The pIC50 was ≤ 5.00.

Q: `CCC(CC)NC(=O)c1ccc(N2CCN(C(C(=O)N(CC)CC)c3ccccc3)CC2)c(F)c1` (stereo not shown) [Example 190, 4-[4-(Diethylcarbamoyl-phenyl-methyl)-piperazin-1-yl]-N-(1-ethyl-propyl)-3-fluoro-benzamide] was tested. Which pIC50 did it give?
A: Its pIC50 is 5.24.

Q: With `CCN(CC)C(=O)C(c1ccccc1)N1CCN(c2ccc(Nc3ccccn3)cc2F)CC1` (stereo not shown) [Example 191, N,N-Diethyl-2-{4-[2-fluoro-4-(pyridin-2-ylamino)-phenyl]-piperazin-1-yl}-2-phenyl-acetamide] as the molecule, how does the pIC50 read?
A: The pIC50 was 6.42.

Q: How did the pIC50 turn out when `CCN(CC)C(=O)C(c1ccccc1)N1CCN(c2ccc(Nc3ncccc3C)cc2F)CC1` (stereo not shown) [Example 192, N,N-Diethyl-2-{4-[2-fluoro-4-(3-methyl-pyridin-2-ylamino)-phenyl]-piperazin-1-yl}-2-phenyl-acetamide] was run?
A: Its pIC50 is 5.30.

Q: How did the pIC50 turn out when `CCC(CC)C(=O)Nc1ccc(C2=CCN(C(C(=O)N(CC)CC)c3ccccc3)CC2)c(F)c1` (stereo not shown) [Example 193, N-{4-[1-(Diethylcarbamoyl-phenyl-methyl)-1,2,3,6-tetrahydro-pyridin-4-yl]-3-fluoro-phenyl}-2-ethyl-butyramide] was run?
A: Its pIC50 is 6.85.

Q: `CCC(CC)C(=O)Nc1ccc(C2CCN(C(C(=O)N(CC)CC)c3ccccc3)CC2)c(F)c1` (stereo not shown) [Example 194, N-{4-[1-(Diethylcarbamoyl-phenyl-methyl)-piperidin-4-yl]-3-fluoro-phenyl}-2-ethyl-butyramide] was tested. Which pIC50 did it give?
A: Its pIC50 is 7.00.

Q: `CCC(CC)C(=O)Nc1ccc(N2CCN(C(C(=O)N(CC)CC)c3cccc(Cl)c3)CC2)c(F)c1` (stereo not shown) [Example 195, N-(4-{4-[(3-Chloro-phenyl)-diethylcarbamoyl-methyl]-piperazin-1-yl}-3-fluoro-phenyl)-2-ethyl-butyramide] was tested. Which pIC50 did it give?
A: Its pIC50 is 7.30.

Q: How did the pIC50 turn out when `CCC(CC)C(=O)Nc1ccc(N2CCN(C(C(=O)N3CCC(F)(F)CC3)c3cccc(F)c3)CC2)c(F)c1` (stereo not shown) [Example 196, N-(4-{4-[2-(4,4-Difluoro-piperidin-1-yl)-1-(3-fluoro-phenyl)-2-oxo-ethyl]-piperazin-1-yl}-3-fluoro-phenyl)-2-ethyl-butyramide] was run?
A: The pIC50 was 6.97.

Q: How did the pIC50 turn out when `CCC(CC)C(=O)Nc1ccc(N2CCN(C(C(=O)N(CC)CC)c3ccc(F)cc3F)CC2)c(F)c1` (stereo not shown) [Example 197, N-(4-{4-[Diethylcarbamoyl-(2,4-difluoro-phenyl)-methyl]-piperazin-1-yl}-3-fluoro-phenyl)-2-ethyl-butyramide] was run?
A: Its pIC50 is 6.82.

Q: With `CCC(CC)C(=O)Nc1ccc(N2CCN(C(C(=O)N3CCC(F)(F)C3)c3ccc(F)cc3)CC2)c(F)c1` (stereo not shown) [Example 198, N-(4-{4-[2-(3,3-Difluoro-pyrrolidin-1-yl)-1-(4-fluoro-phenyl)-2-oxo-ethyl]-piperazin-1-yl}-3-fluoro-phenyl)-2-ethyl-butyramide] as the molecule, how does the pIC50 read?
A: The pIC50 was 6.46.

Q: `CCC(CC)C(=O)Nc1ccc(N2CCN(C(C(=O)N3CCC(F)(F)C3)c3cccc(F)c3)CC2)c(F)c1` (stereo not shown) [Example 199, N-(4-{4-[2-(3,3-Difluoro-pyrrolidin-1-yl)-1-(3-fluoro-phenyl)-2-oxo-ethyl]-piperazin-1-yl}-3-fluoro-phenyl)-2-ethyl-butyramide] was tested. Which pIC50 did it give?
A: The pIC50 was 6.83.

Q: With `CCC(CC)C(=O)Nc1ccc(N2CCN(C(C(=O)N(CC)CC)c3cc(Br)ccc3F)CC2)c(F)c1` (stereo not shown) [Example 200, N-(4-{4-[(5-Bromo-2-fluoro-phenyl)-diethylcarbamoyl-methyl]-piperazin-1-yl}-3-fluoro-phenyl)-2-ethyl-butyramide] as the molecule, how does the pIC50 read?
A: Its pIC50 is 7.82.

Q: With `CCC(CC)C(=O)Nc1ccc(N2CCN(C(C(=O)N(CC)CC)c3ccc(F)c(F)c3)CC2)c(F)c1` (stereo not shown) [Example 201, N-(4-{4-[Diethylcarbamoyl-(3,4-difluoro-phenyl)-methyl]-piperazin-1-yl}-3-fluoro-phenyl)-2-ethyl-butyramide] as the molecule, how does the pIC50 read?
A: Its pIC50 is 6.48.

Q: With `CCN(CC)C(=O)C(c1ccccc1)N1CCN(c2ccc(NC(=O)C3CCCC3)cn2)CC1` (stereo not shown) [Example 202, Cyclopentanecarboxylic acid {6-[4-(diethylcarbamoyl-phenyl-methyl)-piperazin-1-yl]-pyridin-3-yl}-amide] as the molecule, how does the pIC50 read?
A: Its pIC50 is 6.05.

Q: `CCC(CC)C(=O)Nc1ccc(N2CCN(C(C(=O)N(CC)CC)c3ccccc3)CC2)nc1` (stereo not shown) [Example 203, N-{6-[4-(Diethylcarbamoyl-phenyl-methyl)-piperazin-1-yl]-pyridin-3-yl}-2-ethyl-butyramide] was tested. Which pIC50 did it give?
A: The pIC50 was 6.13.

Q: `CCN(CC)C(=O)C(c1ccccc1)C1CCN(c2ccc(NC(=O)C3CCCC3)cn2)CC1` (stereo not shown) [Example 204, Cyclopentanecarboxylic acid [4-(diethylcarbamoyl-phenyl-methyl)-3,4,5,6-tetrahydro-2H-[1,2′]bipyridinyl-5′-yl]-amide] was tested. Which pIC50 did it give?
A: Its pIC50 is 6.40.

Q: With `CCC(CC)C(=O)Nc1ccc(N2CCC(C(C(=O)N(CC)CC)c3ccccc3)CC2)nc1` (stereo not shown) [Example 205, N-[4-(Diethylcarbamoyl-phenyl-methyl)-3,4,5,6-tetrahydro-2H-[1,2′]bipyridinyl-5′-yl]-2-ethyl-butyramide] as the molecule, how does the pIC50 read?
A: Its pIC50 is 6.52.

Q: How did the pIC50 turn out when `CCC(CC)C(=O)Nc1ccc(N2CCC(C(C(=O)N3CCC(F)CC3)c3ccccc3)CC2)c(F)c1` (stereo not shown) [Example 206, 2-Ethyl-N-(3-fluoro-4-{4-[2-(4-fluoro-piperidin-1-yl)-2-oxo-1-phenyl-ethyl]-piperidin-1-yl}-phenyl)-butyramide] was run?
A: Its pIC50 is 7.70.

Q: `CCC(CC)C(=O)Nc1ccc(N2CCC(C(C(=O)N3CC(F)(F)C3)c3ccccc3)CC2)c(F)c1` (stereo not shown) [Example 207, N-(4-{4-[2-(3,3-Difluoro-azetidin-1-yl)-2-oxo-1-phenyl-ethyl]-piperidin-1-yl}-3-fluoro-phenyl)-2-ethyl-butyramide] was tested. Which pIC50 did it give?
A: Its pIC50 is 7.15.

Q: With `CCC(CC)C(=O)Nc1ccc(N2CCC(C(C(=O)N3CCC(F)(F)CC3)c3ccccc3)CC2)c(F)c1` (stereo not shown) [Example 208, N-(4-{4-[2-(4,4-Difluoro-piperidin-1-yl)-2-oxo-1-phenyl-ethyl]-piperidin-1-yl}-3-fluoro-phenyl)-2-ethyl-butyramide] as the molecule, how does the pIC50 read?
A: The pIC50 was 7.70.

Q: With `CCC(CC)C(=O)Nc1ccc(N2CCC(C(C(=O)N3CCC3)c3ccccc3)CC2)c(F)c1` (stereo not shown) [Example 209, N-{4-[4-(2-Azetidin-1-yl-2-oxo-1-phenyl-ethyl)-piperidin-1-yl]-3-fluoro-phenyl}-2-ethyl-butyramide] as the molecule, how does the pIC50 read?
A: Its pIC50 is 7.00.

Reference: patent publication US8183239B2, “Substituted piperazines and piperidines as modulators of the neuropeptide Y2 receptor” (Janssen Pharmaceutica NV, priority 2005, dated 2012)
